In patent publication US9169209B2, “Compounds and compositions for the inhibition of NAMPT” (FORMA TM, LLC, priority 2011, dated 2015):

How the values were obtained:
NAMPT = NAMPT (Homo sapiens (Human), UniProt P43490); assay: Biochemical Inhibition Assay (NAMPT enzymatic reaction, NMN quantified by mass spectrometry); conditions: recombinant His-tagged NAMPT, 33 nM; 1 μM NAM; read-out: Biochem IC50
Method in brief: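 His-tagged human NAMPT from E. coli was preincubated 15 min at RT with compound in Hepes pH 7.5/MgCl2 buffer. Reaction ran 30 min at RT with 1 μM NAM, 100 μM PRPP and 2.5 mM ATP, then was quenched with formic acid. NMN was measured by RapidFire MS, normalized to L-cystathionine, and IC50 derived from % inhibition.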

A2780 cells = assay: In-Vitro Cell Proliferation Assay (SRB, 72 hours); type: cell-based; conditions: Homo sapiens, A2780, 72 h, A2780 cells, 72 hours, sulforhodamine B; read-out: A2780 IC50
Method in brief: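 Plated cells exposed to serially diluted compound (0.1% DMSO final) for 72 h at 37 °C, 5% CO2. Viability by SRB staining after TCA fixation, absorbance 570 nm, media-only background subtracted; % inhibition relative to DMSO-treated cells, interpolated between bracketing concentrations.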

NAMPT, sequence (P43490 whole entry): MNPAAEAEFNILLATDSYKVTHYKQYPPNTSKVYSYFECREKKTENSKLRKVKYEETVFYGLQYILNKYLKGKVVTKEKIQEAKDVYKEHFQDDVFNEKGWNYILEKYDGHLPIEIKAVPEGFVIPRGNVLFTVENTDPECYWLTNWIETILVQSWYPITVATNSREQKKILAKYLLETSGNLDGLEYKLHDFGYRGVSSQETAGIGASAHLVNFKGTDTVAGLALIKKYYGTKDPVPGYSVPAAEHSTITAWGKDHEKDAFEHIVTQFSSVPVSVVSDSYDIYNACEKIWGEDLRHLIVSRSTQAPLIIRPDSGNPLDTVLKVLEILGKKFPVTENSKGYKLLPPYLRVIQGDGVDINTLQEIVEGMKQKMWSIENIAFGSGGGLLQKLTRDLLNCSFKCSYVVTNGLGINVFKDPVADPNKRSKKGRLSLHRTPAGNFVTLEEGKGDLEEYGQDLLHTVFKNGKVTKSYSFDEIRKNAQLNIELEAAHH

| Structure (SMILES) | IC50 (NAMPT) [µM] | IC50 (A2780 cells) [µM] |
| --- | --- | --- |
| Cc1cc(F)cc(S(=O)(=O)c2ccc(NC(=O)/C=C/c3cccnc3)cc2)c1 [(2E)-N-{4-[(3-fluoro-5-methylbenzene)sulfonyl]phenyl}-3-(pyridin-3-yl)prop-2-enamide] | 0.0175 | 0.108 |
| O=C(/C=C/c1cccnc1)Nc1ccc(S(=O)(=O)c2cccc(F)c2)cc1 [(2E)-N-{4-[(3-fluorobenzene)sulfonyl]phenyl}-3-(pyridin-3-yl)prop-2-enamide] | 0.0664 | 0.103 |
| CS(=O)(=O)Nc1cccc(S(=O)(=O)c2ccc(NC(=O)/C=C/c3cccnc3)cc2)c1 [(2E)-N-{4-[(3-methanesulfonamidobenzene)sulfonyl]phenyl}-3-(pyridin-3-yl)prop-2-enamide] | 0.0075 | 0.1 to 1 |
| CS(=O)(=O)c1cccc(S(=O)(=O)c2ccc(NC(=O)/C=C/c3cccnc3)cc2)c1 [(2E)-N-{4-[(3-methanesulfonylbenzene)sulfonyl]phenyl}-3-(pyridin-3-yl)prop-2-enamide] | 0.0143 | 0.1 to 1 |
| COc1cccc(S(=O)(=O)c2ccc(NC(=O)/C=C/c3cccnc3)cc2)c1 [(2E)-N-{4-[(3-methoxybenzene)sulfonyl]phenyl}-3-(pyridin-3-yl)prop-2-enamide] | 0.0857 | 0.114 |
| O=C(/C=C/c1cccnc1)Nc1ccc(S(=O)(=O)c2cccc(-c3ccccc3)c2)cc1 [(2E)-N-{4-[(3-phenylbenzene)sulfonyl]phenyl}-3-(pyridin-3-yl)prop-2-enamide] | 0.0254 | 0.1 to 1 |
| CCCOc1cccc(S(=O)(=O)c2ccc(NC(=O)/C=C/c3cccnc3)cc2)c1 [(2E)-N-{4-[(3-propoxybenzene)sulfonyl]phenyl}-3-(pyridin-3-yl)prop-2-enamide] | 0.0216 | 0.0868 |
| CCOc1cc(Cl)ccc1S(=O)(=O)c1ccc(NC(=O)/C=C/c2cccnc2)cc1 [(2E)-N-{4-[(4-chloro-2-ethoxybenzene)sulfonyl]phenyl}-3-(pyridin-3-yl)prop-2-enamide] | 0.0042 | 0.00968 |
| COc1cc(Cl)ccc1S(=O)(=O)c1ccc(NC(=O)/C=C/c2cccnc2)cc1 [(2E)-N-{4-[(4-chloro-2-methoxybenzene)sulfonyl]phenyl}-3-(pyridin-3-yl)prop-2-enamide] | 0.0073 | 0.109 |
| COc1cc(S(=O)(=O)c2ccc(NC(=O)/C=C/c3cccnc3)cc2)ccc1Cl [(2E)-N-{4-[(4-chloro-3-methoxybenzene)sulfonyl]phenyl}-3-(pyridin-3-yl)prop-2-enamide] | 0.0263 | 0.072 |
| O=C(/C=C/c1cccnc1)Nc1ccc(S(=O)(=O)c2ccc(Cl)cc2)cc1 [(2E)-N-{4-[(4-chlorobenzene)sulfonyl]phenyl}-3-(pyridin-3-yl)prop-2-enamide] | 0.0435 | 0.1 to 1 |
| CCOc1ccc(S(=O)(=O)c2ccc(NC(=O)/C=C/c3cccnc3)cc2)cc1F [(2E)-N-{4-[(4-ethoxy-3-fluorobenzene)sulfonyl]phenyl}-3-(pyridin-3-yl)prop-2-enamide] | 0.0341 | 0.175 |
| CCOc1ccc(S(=O)(=O)c2ccc(NC(=O)/C=C/c3cccnc3)cc2)cc1 [(2E)-N-{4-[(4-ethoxybenzene)sulfonyl]phenyl}-3-(pyridin-3-yl)prop-2-enamide] | 0.0274 | 0.1 to 1 |
| Cc1cc(S(=O)(=O)c2ccc(NC(=O)/C=C/c3cccnc3)cc2)ccc1F [(2E)-N-{4-[(4-fluoro-3-methylbenzene)sulfonyl]phenyl}-3-(pyridin-3-yl)prop-2-enamide] | 0.0219 | 0.1 to 1 |
| O=C(/C=C/c1cccnc1)Nc1ccc(S(=O)(=O)c2ccc(F)cc2)cc1 [(2E)-N-{4-[(4-fluorobenzene)sulfonyl]phenyl}-3-(pyridin-3-yl)prop-2-enamide] | 0.002 | 0.158 |
| CS(=O)(=O)c1ccc(S(=O)(=O)c2ccc(NC(=O)/C=C/c3cccnc3)cc2)cc1 [(2E)-N-{4-[(4-methanesulfonylbenzene)sulfonyl]phenyl}-3-(pyridin-3-yl)prop-2-enamide] | 0.0114 | 0.1 to 1 |
| COc1c(C)cc(S(=O)(=O)c2ccc(NC(=O)/C=C/c3cccnc3)cc2)cc1C [(2E)-N-{4-[(4-methoxy-3,5-dimethylbenzene)sulfonyl]phenyl}-3-(pyridin-3-yl)prop-2-enamide] | 0.0067 | 0.0495 |
| COc1ccc(S(=O)(=O)c2ccc(NC(=O)/C=C/c3cccnc3)cc2)cc1C [(2E)-N-{4-[(4-methoxy-3-methylbenzene)sulfonyl]phenyl}-3-(pyridin-3-yl)prop-2-enamide] | 0.0171 | 0.116 |
| O=C(/C=C/c1cccnc1)Nc1ccc(S(=O)(=O)c2ccc(-c3ccccc3)cc2)cc1 [(2E)-N-{4-[(4-phenylbenzene)sulfonyl]phenyl}-3-(pyridin-3-yl)prop-2-enamide] | 0.0045 | 0.1 to 1 |
| CCOc1ccc(Cl)cc1S(=O)(=O)c1ccc(NC(=O)/C=C/c2cccnc2)cc1 [(2E)-N-{4-[(5-chloro-2-ethoxybenzene)sulfonyl]phenyl}-3-(pyridin-3-yl)prop-2-enamide] | 0.0123 | 0.00559 |
| COc1ccc(Cl)cc1S(=O)(=O)c1ccc(NC(=O)/C=C/c2cccnc2)cc1 [(2E)-N-{4-[(5-chloro-2-methoxybenzene)sulfonyl]phenyl}-3-(pyridin-3-yl)prop-2-enamide] | 0.0046 | 0.0126 |
| COc1ccc(F)cc1S(=O)(=O)c1ccc(NC(=O)/C=C/c2cccnc2)cc1 [(2E)-N-{4-[(5-fluoro-2-methoxybenzene)sulfonyl]phenyl}-3-(pyridin-3-yl)prop-2-enamide] | 0.0145 | 0.0205 |
| Cc1ccc(F)cc1S(=O)(=O)c1ccc(NC(=O)/C=C/c2cccnc2)cc1 [(2E)-N-{4-[(5-fluoro-2-methylbenzene)sulfonyl]phenyl}-3-(pyridin-3-yl)prop-2-enamide] | 0.0074 | 0.0901 |
| O=C(/C=C/c1cccnc1)NCc1ccc(S(=O)(=O)c2ccccc2)cc1 [(2E)-N-{[4-(benzenesulfonyl)phenyl]methyl}-3-(pyridin-3-yl)prop-2-enamide] | 0.003 | 0.243 |
| O=C(Nc1ccc(S(=O)(=O)c2ccccc2)cc1)/C(F)=C/c1cccnc1 [(2Z)-N-[4-(benzenesulfonyl)phenyl]-2-fluoro-3-(pyridin-3-yl)prop-2-enamide] | 0.007 | 0.347 |
| CC(C)CNC(=O)c1cccc(S(=O)(=O)c2ccc(NC(=O)/C=C/c3cccnc3)cc2)c1 [N-(2-methylpropyl)-3-({4-[(2E)-3-(pyridin-3-yl)prop-2-enamido]benzene}sulfonyl)benzamide] | 0.0213 | 0.1 to 1 |
| CC(C)NC(=O)c1cccc(S(=O)(=O)c2ccc(NC(=O)/C=C/c3cccnc3)cc2)c1 [N-(propan-2-yl)-3-({4-[(2E)-3-(pyridin-3-yl)prop-2-enamido]benzene}sulfonyl)benzamide] | 0.0176 | 0.1 to 1 |
| O=C(/C=C/c1cccnc1)Nc1ccc(S(=O)(=O)c2cccc(C(=O)NC3CCCC3)c2)cc1 [N-cyclopentyl-3-({4-[(2E)-3-(pyridin-3-yl)prop-2-enamido]benzene}sulfonyl)benzamide] | 0.0161 | 0.1 to 1 |
| CCNC(=O)c1cccc(S(=O)(=O)c2ccc(NC(=O)/C=C/c3cccnc3)cc2)c1 [N-ethyl-3-({4-[(2E)-3-(pyridin-3-yl)prop-2-enamido]benzene}sulfonyl)benzamide] | 0.0073 | 0.1 to 1 |
| CCNC(=O)c1ccc(S(=O)(=O)c2ccc(NC(=O)/C=C/c3cccnc3)cc2)cc1 [N-ethyl-4-({4-[(2E)-3-(pyridin-3-yl)prop-2-enamido]benzene}sulfonyl)benzamide] | 0.0147 | 0.1 to 1 |
